Among the data in patent US11439643B2, “Combination therapy using belinostat and pralatrexate to treat lymphoma” (Spectrum Pharmaceuticals, Inc., priority 2015, dated 2022) are IC50 values, retold here.

Where two headings read alike, the source gives them in different places.

Format in all cases: cell-based
For assay [1], the system named is KARPAS-299 [Human Non-Hodgkin's Ki-positive Large Cell Lymphoma (T cell origin)]. Briefly: CellTiter-Glo cell viability / growth inhibition, KARPAS-299. Here is the method: (§1) The growth inhibitory effects of belinostat alone, and in combination with pralatrexate, was assayed in several different human lymphoma cell lines in vitro.
(§2) Serum used in this study is un-dialyzed fetal bovine serum (Atlanta Biologics) and contains<[…] of 5-methyltetrahydrofolate.
(§3) The cultures are maintained in T75-cm^2 culture flasks at 37° C., 95% air humidity, and 5% CO2. The cells are subcultured at 80-90% confluence and are seeded into 96-well plates at 1.5×10^4 cells per well for each experiment.
(§4) Cell Treatment: Treatment is initiated 24 hours after plating. […] Growth Inhibition Assay: Cell viability is determined using the CellTiter-Glo® Luminescent Cell Viability assay from Promega. The CellTiter-Glo® assay is a homogeneous method to determine and compare cell viability using ATP utilization. Following treatment, 100 μl of growth medium is removed and cells are incubated with 100 μl CellTiter-Glo® reagent for two minutes with nutation and incubated at room temperature for ten additional minutes to stabilize the luminescence signal; luminescence is then measured using a Biotek luminometer with values reported in (Lum).
(§5) Data analysis: Cell viability in each assay is expressed as a percentage versus untreated control cells.

In assay [2] the test system is Jeko-1 [Mantle Cell Lymphoma (B cell origin)]. Briefly: CellTiter-Glo cell viability / growth inhibition, Jeko-1. Conditions: Homo sapiens; Jeko-1, belinostat plus pralatrexate concurrently, 72 h; read-out: IC50 in combination studies. Here is the method: as §1, §2, §3, §4, §5
(ATP-based viability assays read luminescence as a measure of living cells.)

For assay [3], the system named is HUT-78 [Cutaneous T lymphocyte (T cell origin)]. Briefly: CellTiter-Glo cell viability / growth inhibition, HUT-78. Conditions: Homo sapiens, HuT78. Here is the method:
as §1, §2, §3, §4, §5

Assay [4] relates to panel of lymphoma cell lines. Briefly: CellTiter-Glo cell viability, panel of lymphoma cell lines. The following applies: Homo sapiens; single agent, 72 hr exposure, range over cell lines; read-out: Single agent IC50 values across a panel of lymphoma cell lines. Here is the method:
as §1, §2, §3
Cell Treatment: Treatment is initiated 24 hours after plating.
Growth Inhibition Assay: Cell viability is determined using the CellTiter-Glo® Luminescent Cell Viability assay from Promega. The CellTiter-Glo® assay is a homogeneous method to determine and compare cell viability using ATP utilization. Following treatment, 100 μl of growth medium is removed and cells are incubated with 100 μl CellTiter-Glo® reagent for two minutes with nutation and incubated at room temperature for ten additional minutes to stabilize the luminescence signal; luminescence is then measured using a Biotek luminometer with values reported in (Lum).
as §5

[5] abbreviates: KARPAS-299, belinostat plus pralatrexate concurrently, 72 h, read-out: IC50 in combination studies.
Where [6] appears, read: HUT-78, belinostat plus pralatrexate concurrently, 72 h, read-out: IC50 in combination studies.
[7] abbreviates: HUT-78, single agent, 72 hr exposure, read-out: Single Agent IC50.

Take `O=C(/C=C/c1cccc(S(=O)(=O)Nc2ccccc2)c1)NO` [Belinostat, (2E)-N-hydroxy-3-[3-(phenylsulfamoyl)phenyl]prop-2-enamide]: the IC50 in assay [1] (setting [5]) is 127 nM; in assay [2], 87 nM; in assay [3] (setting [6]), 170 nM; in assay [3] (setting [7]), 97 nM; in assay [4], 90 to 210 nM.

Consider `C#CCC(Cc1cnc2nc(N)nc(N)c2n1)c1ccc(C(=O)N[C@@H](CCC(=O)O)C(=O)O)cc1` (mixture of isomers) [Pralatrexate, (2S)-2-[[4-[(1RS)-1-[(2,4-diaminopteridin-6-yl)methyl]but-3ynyl]benzoyl]amino]pentanedioic acid], for which the IC50 in assay [1] (setting [5]) was 3.6 nM; in assay [1] (KARPAS-299, single agent, 72 hr exposure, read-out: Single Agent IC50), 24 nM; in assay [2], 2.1 nM; in assay [3] (setting [6]), 4.1 nM; in assay [3] (setting [7]), 2.8 nM; in assay [4], 2 to 25 nM.

As a reminder, the IC50 is the point on the concentration scale where inhibition reaches its midpoint.
